One experiment deals with Pim2 kinase (Homo sapiens, UniProt Q9P1W9). Description: Pim2 AlphaScreen assay (high ATP).
Experiment [1] concerns KMS11 (human myeloma cell line). The experiment is described as follows: Cell proliferation assay (CellTiter-Glo) in KMS11 cells. In kind it is cell-based. Conditions: KMS-11, 72 h, Table 5, 3 days, read-out: KMS11-luc EC50. On the procedure:
KMS11 (human myeloma cell line), were cultured in IMDM supplemented with 10% FBS, sodium pyruvate and antibiotics. Cells were plated in the same medium at a density of 2000 cells per well into 96 well tissue culture plates, with outside wells vacant, on the day of assay.
Test compounds supplied in DMSO were diluted into DMSO at 500 times the desired final concentrations before dilution into culture media to 2 times final concentrations.
After 3 days plates were equilibrated to room temperature and equal volume of CellTiter-Glow Reagent (Promega) was added to the culture wells. The plates were agitated briefly and luminescent signal was measured with luminometer.

A further experiment concerns the target Pim1 kinase (Homo sapiens, UniProt P11309). The experiment is described as follows: Pim1 AlphaScreen assay (high ATP).
The target of a further experiment is Pim3 kinase (Homo sapiens, UniProt Q86V86). The experiment is described as follows: Pim3 AlphaScreen assay (high ATP).

Sequence of Pim1 kinase (P11309 whole entry): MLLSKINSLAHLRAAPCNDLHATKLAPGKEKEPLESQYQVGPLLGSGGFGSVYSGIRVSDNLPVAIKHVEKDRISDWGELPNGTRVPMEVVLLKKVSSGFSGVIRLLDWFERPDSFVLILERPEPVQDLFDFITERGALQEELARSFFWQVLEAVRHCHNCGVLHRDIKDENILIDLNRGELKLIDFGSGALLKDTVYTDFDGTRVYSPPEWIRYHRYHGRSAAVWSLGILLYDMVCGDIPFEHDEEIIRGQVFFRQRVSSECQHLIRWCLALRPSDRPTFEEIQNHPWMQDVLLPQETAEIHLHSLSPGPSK
Sequence of Pim2 kinase (Q9P1W9 whole entry): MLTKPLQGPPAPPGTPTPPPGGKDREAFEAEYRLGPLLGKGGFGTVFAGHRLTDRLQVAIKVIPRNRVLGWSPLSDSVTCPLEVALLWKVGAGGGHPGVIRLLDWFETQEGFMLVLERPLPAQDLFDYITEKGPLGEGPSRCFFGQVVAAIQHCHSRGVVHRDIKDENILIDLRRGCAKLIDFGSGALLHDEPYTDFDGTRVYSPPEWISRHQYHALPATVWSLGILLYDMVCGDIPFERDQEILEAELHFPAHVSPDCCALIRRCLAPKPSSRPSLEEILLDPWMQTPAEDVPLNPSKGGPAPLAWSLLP
Experimental for Pim1 kinase: The activity of Pim 1, Pim 2, & Pim 3 is measured using a homogeneous bead based system quantifying the amount of phosphorylated peptide substrate resulting from kinase-catalyzed phosphoryl transfer to a peptide substrate. Compounds to be tested are dissolved in 100% DMSO and directly distributed to a white 384-well plate at 0.25 μl per well. […] This is followed by the addition of 5 μl/well of Pim 1, Pim 2 or Pim 3 kinase in assay buffer (concentrations described below). Final assay concentrations (described below) are in 2.5% DMSO. The reactions are performed for ˜2 hours, then stopped by the addition of 10 μl of 0.75 μg/ml anti-phospho Ser/Thr antibody (Cell Signaling), 10 μg/ml Protein A AlphaScreen beads (Perkin Elmer), and 10 μg/ml streptavidin coated AlphaScreen beads in stop/detection buffer (50 mM EDTA, 95 mM Tris, pH=7.5, 0.01% Tween-20). The stopped reactions are incubated overnight in the dark. The phosphorylated peptide is detected via an oxygen anion initiated chemiluminescence/fluorescence cascade using the Envision plate reader (Perkin Elmer).

Turning to `C[C@H]1C[C@@H](c2ccncc2NC(=O)c2nc(-c3c(F)cccc3F)ccc2N)C[C@@H](O)[C@@]1(O)CF` [Example 18, 3-amino-6-(2,6-difluorophenyl)-N-(4-((1R,3R,4R,5S)-4-(fluoromethyl)-3,4-dihydroxy-5-methylcyclohexyl)pyridin-3-yl) picolinamide], the IC50 turned out to be 47 nM at Pim2 kinase, 0.67 nM against Pim1 kinase and 10.2 nM against Pim3 kinase. In addition, the EC50 in experiment [1] stood at 714 nM.

For `COc1cc(F)c(-c2nc(C(=O)Nc3cnccc3[C@H]3C[C@@H](O)[C@](C)(O)[C@@H](C)C3)ccc2F)c(F)c1` [Example 22, 6-(2,6-difluoro-4-methoxyphenyl)-N-(4-((1R,3R,4R,5S)-3,4-dihydroxy-4,5-dimethylcyclohexyl)pyridin-3-yl)-5-fluoropicolinamide], the IC50 at Pim2 kinase amounted to 201 nM; at Pim1 kinase, 0.85 nM; against Pim3 kinase it was 39.5 nM. For the same compound, the EC50 in experiment [1] stood at 382 nM.

For `CC(C)Oc1cc(F)c(-c2nc(C(=O)Nc3cnccc3[C@H]3C[C@@H](N)[C@](C)(O)[C@@H](C)C3)ccc2F)c(F)c1` [Example 64, N-(4-((1R,3R,4R,5S)-3-amino-4-hydroxy-4,5-dimethylcyclohexyl)pyridin-3-yl)-6-(2,6-difluoro-4-isopropoxyphenyl)-5-fluoropicolinamide], the IC50 against Pim2 kinase was found to be 1.54 nM; against Pim1 kinase, 0.02 nM; against Pim3 kinase it was 0.54 nM. In addition, the EC50 in experiment [1] worked out at 165 nM.

As for `C[C@H]1C[C@@H](c2ccncc2NC(=O)c2ccc(F)c(-c3c(F)cc(OC4CCOCC4)cc3F)n2)C[C@@H](N)[C@]1(C)O` [Example 65, N-(4-((1R,3R,4R,5S)-3-amino-4-hydroxy-4,5-dimethylcyclohexyl)pyridin-3-yl)-6-(2,6-difluoro-4-(tetrahydro-2H-pyran-4-yloxy)phenyl)-5-fluoropicolinamide], the IC50 was found to be 2.14 nM at Pim2 kinase, 0.03 nM at Pim1 kinase and 0.73 nM against Pim3 kinase. Also, the EC50 in experiment [1] was 38 nM.

In the case of `C[C@H]1C[C@@H](c2ccncc2NC(=O)c2ccc(F)c(-c3c(F)cc(C(C)(C)O)cc3F)n2)C[C@@H](N)[C@]1(C)O` [Example 66], the IC50 at Pim2 kinase is 2.92 nM; on Pim1 kinase it was 0.03 nM; on Pim3 kinase, 1.64 nM. Also, the EC50 in experiment [1] was 13 nM.

In the case of `C[C@H]1C[C@@H](c2ccncc2NC(=O)c2ccc(F)c(-c3c(F)cc(C4CC4)cc3F)n2)C[C@@H](N)[C@]1(C)O` [Example 67, N-(4-((1R,3R,4R,5S)-3-amino-4-hydroxy-4,5-dimethylcyclohexyl)pyridin-3-yl)-6-(4-cyclopropyl-2,6-difluorophenyl)-5-fluoropicolinamide], the IC50 on Pim2 kinase is 2.5 nM; against Pim1 kinase it was 0.01 nM; against Pim3 kinase, 0.96 nM. In addition, in experiment [1], the EC50 was 127 nM.

`C[C@H]1C[C@@H](c2ccncc2NC(=O)c2ccc(F)c(-c3c(F)cc(C4(F)COC4)cc3F)n2)C[C@@H](N)[C@]1(C)O` [Example 69, N-(4-((1R,3R,4R,5S)-3-amino-4-hydroxy-4,5-dimethylcyclohexyl)pyridin-3-yl)-6-(2,6-difluoro-4-(3-fluorooxetan-3-yl)phenyl)-5-fluoropicolinamide]: the results for the IC50 against Pim2 kinase, against Pim1 kinase and against Pim3 kinase were 6.42 nM, 0.09 nM and 4.2 nM, respectively. Besides, the EC50 in experiment [1] turned out to be 423 nM.

For `C[C@H]1C[C@@H](c2ccncc2NC(=O)c2ccc(F)c(-c3c(F)cc(C4(F)CCOCC4)cc3F)n2)C[C@@H](N)[C@]1(C)O` [Example 70, N-(4-((1R,3R,4R,5S)-3-amino-4-hydroxy-4,5-dimethylcyclohexyl)pyridin-3-yl)-6-(2,6-difluoro-4-(4-fluorotetrahydro-2H-pyran-4-yl)phenyl)-5-fluoropicolinamide], the IC50 was determined as 2.21 nM on Pim2 kinase, 0.04 nM against Pim1 kinase and 1.73 nM at Pim3 kinase. Moreover, the EC50 in experiment [1] was determined as 136 nM.

As to `C[C@H]1C[C@@H](c2ccncc2NC(=O)c2ccc(F)c(-c3c(F)cc(C4CCOCC4)cc3F)n2)C[C@@H](N)[C@]1(C)O` [Example 71, N-(4-((1R,3R,4R,5S)-3-amino-4-hydroxy-4,5-dimethylcyclohexyl)pyridin-3-yl)-6-(2,6-difluoro-4-(tetrahydro-2H-pyran-4-yl)phenyl)-5-fluoropicolinamide], the IC50 at Pim2 kinase was 1.47 nM; against Pim1 kinase it was 0.02 nM; at Pim3 kinase, 0.72 nM. The EC50 in experiment [1] is 81 nM.

As for `C[C@H]1C[C@@H](c2ccncc2NC(=O)c2ccc(F)c(-c3c(F)cc(C(C)(C)O)cc3F)n2)C[C@@H](O)[C@]1(C)O` [Example 73, 6-(2,6-difluoro-4-(2-hydroxypropan-2-yl)phenyl)-N-(4-((1R,3R,4R,5S)-3,4-dihydroxy-4,5-dimethylcyclohexyl)pyridin-3-yl)-5-fluoropicolinamide], the values for the IC50 on Pim2 kinase, on Pim1 kinase and at Pim3 kinase were 156 nM, 0.42 nM and 63.1 nM, respectively. For the same compound, in experiment [1], the EC50 came out at 189 nM.

Consider `C[C@@H]1C[C@H](c2ccncc2NC(=O)c2ccc(F)c(-c3c(F)cc(C(C)(C)O)cc3F)n2)C[C@H](O)[C@@]1(C)O` [Example 74, 6-(2,6-difluoro-4-(2-hydroxypropan-2-yl)phenyl)-N-(4-((1S,3S,4S,5R)-3,4-dihydroxy-4,5-dimethylcyclohexyl)pyridin-3-yl)-5-fluoropicolinamide], for which the IC50 at Pim2 kinase was 6340 nM; against Pim1 kinase, 18.8 nM; against Pim3 kinase, 2870 nM. Besides, the EC50 in experiment [1] was 3470 nM.

For the compound `C[C@@H]1C[C@H](c2ccncc2NC(=O)c2ccc(F)c(-c3c(F)cc(C4(O)COC4)cc3F)n2)C[C@H](O)[C@@]1(C)O` [Example 75], the IC50 was 8640 nM against Pim2 kinase, 39.1 nM against Pim1 kinase and 5900 nM against Pim3 kinase. Moreover, the EC50 in experiment [1] amounted to 5780 nM.

For the compound `C[C@H]1C[C@@H](c2ccncc2NC(=O)c2ccc(F)c(-c3c(F)cc(C4(O)COC4)cc3F)n2)C[C@@H](O)[C@]1(C)O` [Example 76], the IC50 against Pim2 kinase was 264 nM; at Pim1 kinase, 0.82 nM; against Pim3 kinase it was 117 nM. In experiment [1], the EC50 is 1140 nM.

Regarding `C[C@H]1C[C@@H](c2ccncc2NC(=O)c2ccc(F)c(-c3c(F)cc(CN4CCCC4=O)cc3F)n2)C[C@@H](O)[C@]1(C)O` [Example 77, 6-(2,6-difluoro-4-((2-oxopyrrolidin-1-yl)methyl)phenyl)-N-(4-((1R,3R,4R,5S)-3,4-dihydroxy-4,5-dimethylcyclohexyl)pyridin-3-yl)-5-fluoropicolinamide], the IC50 at Pim2 kinase amounted to 93.7 nM; against Pim1 kinase, 0.97 nM; at Pim3 kinase, 83.3 nM. In experiment [1], the EC50 is 136 nM.

For the compound `C[C@@H]1C[C@H](c2ccncc2NC(=O)c2ccc(F)c(-c3c(F)cc(CN4CCCC4=O)cc3F)n2)C[C@H](O)[C@@]1(C)O` [Example 78, 6-(2,6-difluoro-4-((2-oxopyrrolidin-1-yl)methyl)phenyl)-N-(4-((1S,3S,4S,5R)-3,4-dihydroxy-4,5-dimethylcyclohexyl)pyridin-3-yl)-5-fluoropicolinamide], the IC50 is 1570 nM against Pim2 kinase, 18.7 nM against Pim1 kinase and 969 nM on Pim3 kinase. Moreover, the EC50 in experiment [1] was over 10000 nM.

In the case of `C[C@@H]1C[C@H](c2ccncc2NC(=O)c2ccc(F)c(-c3c(F)cc(C4(O)CCCC4)cc3F)n2)C[C@H](O)[C@@]1(C)O` [Example 79, 6-(2,6-difluoro-4-(1-hydroxycyclopentyl)phenyl)-N-(4-((1S,3S,4S,5R)-3,4-dihydroxy-4,5-dimethylcyclohexyl)pyridin-3-yl)-5-fluoropicolinamide], the IC50 was found to be 619 nM on Pim2 kinase, 6.73 nM against Pim1 kinase and 470 nM at Pim3 kinase. For the same compound, in experiment [1], the EC50 is over 10000 nM.

For `C[C@H]1C[C@@H](c2ccncc2NC(=O)c2ccc(F)c(-c3c(F)cc(C4(O)CCCC4)cc3F)n2)C[C@@H](O)[C@]1(C)O` [Example 80, 6-(2,6-difluoro-4-(1-hydroxycyclopentyl)phenyl)-N-(4-((1R,3R,4R,5S)-3,4-dihydroxy-4,5-dimethylcyclohexyl)pyridin-3-yl)-5-fluoropicolinamide], the IC50 against Pim2 kinase was found to be 126 nM; against Pim1 kinase, 0.15 nM; against Pim3 kinase, 55 nM. Besides, the EC50 in experiment [1] was determined as 169 nM.

Take `C[C@H]1C[C@@H](c2ccncc2NC(=O)c2ccc(F)c(-c3c(F)cc(C4=CCCC4)cc3F)n2)C[C@@H](N)[C@]1(C)O` [Example 81, N-(4-((1R,3R,4R,5S)-3-amino-4-hydroxy-4,5-dimethylcyclohexyl)pyridin-3-yl)-6-(4-cyclopentenyl-2,6-difluorophenyl)-5-fluoropicolinamide]: the results for the IC50 on Pim2 kinase, against Pim1 kinase and against Pim3 kinase were 4.42 nM, 0.03 nM and 0.94 nM, respectively. The EC50 in experiment [1] stood at 409 nM.

With `C[C@H]1C[C@@H](c2ccncc2NC(=O)c2ccc(F)c(-c3c(F)cc(C4(O)CCCC4)cc3F)n2)C[C@@H](N)[C@]1(C)O` [Example 82, N-(4-((1R,3R,4R,5S)-3-amino-4-hydroxy-4,5-dimethylcyclohexyl)pyridin-3-yl)-6-(2,6-difluoro-4-(1-hydroxycyclopentyl)phenyl)-5-fluoropicolinamide], the IC50 against Pim2 kinase is 2.68 nM; against Pim1 kinase, 0.02 nM; at Pim3 kinase it was 1.18 nM. Besides, in experiment [1], the EC50 was found to be 43 nM.

(Values after patent publication US20120225061A1, “TETRASUBSTITUTED CYCLOHEXYL COMPOUNDS AS KINASE INHIBITORS” (priority 2011, published 2012).)
